In patent US20180177706A1, “COMPOSITIONS CONTAINING HYALURONIC ACID AND SYNERGISTIC ANTI-HYALURONIDASE ACTIVES” (L'OREAL, priority 2016, published 2018):

Experiments:
[1] = test system: HAase; assay: HA gel model of HAase inhibition-based kinetic viscoelastic profile measurement; assay type: biochemical
Method: Hyaluronidase inhibition activity was evaluated in a HA gel model of HAase inhibition-based kinetic viscoelastic profile measurement. According to the experimental design, various individual controls and known HAase inhibitors were tested (alone and in combination). In this model, HAase was introduced into a gel composed of HA. Upon exposure, the HAase decomposes the HA gel in a time dependent manner which is directly correlated to the viscosity of the HA gel. Test compounds were introduced to the HA gel system and degree of HAase inhibition as gauged by measuring viscosity (change in viscosity) over time.
At each time point, % of Viscosity Loss is compared to the viscosity of HA gel without enzyme.
To describe the synergy clearly, the “inhibition factor,” below, reflects the extent of inhibition of HAase activity, where n=viscosity: […]

[2] = test system: hyaluronidase (HAase); assay: in vitro dose screening assay of HAase inhibitors; assay type: biochemical
Method: Antioxidants having known hyaluronidase inhibition properties were tested in vitro to establish baseline inhibition. Referring now to the drawings, selected results are shown in the table of FIG. 1, with the known HAase inhibitor Apigenin as a positive control.

[3] = solubility / formulation observation; assay type: physicochemical
[4] = test system: HAase; conditions: stated as known; cited from earlier work

Row | SMILES | inhibition of hyaluronidase in gel model (in words) [1] | inhibition of HAase (in words) ([2]; concentration of 0.05 mg/mL) | dose effect on HAase inhibition ([2]; up to testing dose of 0.5 mg/ml) | solubility (in words) [3] | inhibition of HAase (known) [4] | inhibition of HAase (in words) ([2]; in vitro assay)
1 | CC1(C)[C@@H](O[C@H]2O[C@H](C(=O)[O-])[C@@H](O)[C@H](O)[C@H]2O[C@@H]2O[C@H](C(=O)[O-])[C@@H](O)[C@H](O)[C@H]2O)CC[C@]2(C)[C@H]3C(=O)C=C4[C@@H]5C[C@@](C)(C(=O)O)CC[C@]5(C)CC[C@@]4(C)[C@]3(C)CC[C@@H]12.[K+].[K+] [dipotassium glycyrrhizate] | very mild effect | mild inhibitors | no clear dose effect |  |  | 
2 | O=C(OC[C@H]1O[C@@H](OC(=O)c2cc(O)c(O)c(OC(=O)c3cc(O)c(O)c(O)c3)c2)[C@H](OC(=O)c2cc(O)c(O)c(OC(=O)c3cc(O)c(O)c(O)c3)c2)[C@@H](OC(=O)c2cc(O)c(O)c(OC(=O)c3cc(O)c(O)c(O)c3)c2)[C@@H]1OC(=O)c1cc(O)c(O)c(OC(=O)c2cc(O)c(O)c(O)c2)c1)c1cc(O)c(O)c(OC(=O)c2cc(O)c(O)c(O)c2)c1 [tannic acid] |  |  |  | highly insoluble | super-efficient inhibitor | very potent inhibitor
